Data taken from patent US20250222028A1, “ENGINEERED IMMUNE CELL PLATFORM” (Cancer Research Technology Limited, priority 2022, published 2025).

Experiments:
CD8+ T cells = assay: Flow cytometric analysis of viability, proliferation and memory subsets of CD8+ T cells; format: cell-based; settings: 10 μM, 24 h
Protocol: FIG. 11. […] Naïve CD8+ T cells were stimulated with plate-bound anti-CD3/CD28 antibodies for 24 h in the presence of 10 μM FPL64176 or carrier control before flow cytometric analysis (FIG. 11A-D). (A) Quantitative analysis of live cell numbers. (B) Percentage of cells positive for the apoptotic marker Apotracker™ Green. (C) Percentage of cells positive for cell viability dye DAPI. (D) Analysis of T cell subsets based on the expression of CD44 and CD62L: CD44− CD62L+ (naïve), CD44+ CD62L+ (central memory), and CD44+ CD62L− (effector memory). (FIG. 11E-G) CTLs were restimulated on day 10 with plate-bound anti-CD3 antibody for 24 h in the presence of 10 μM FPL64176 or carrier control before flow cytometric analysis. (E) Quantitative analysis of live cell numbers. (F) Percentage of cells positive for the apoptotic marker Apotracker™ Green. (G) Percentage of cells positive for the cell viability dye DAPI. […]
To ensure that the use of L-type Cav agonist is not adversely affecting immune cells, general cell functions were assessed. […]

GLI1 [1] = assay: GLI1 mRNA expression by qRT-PCR in human CD8+ T cells and CTLs; format: cell-based
Protocol: FIG. 3. L-type Cav channel agonists increase expression of GLI1 and enhance specific cell killing by human CD8+ CTLs. Naïve human CD8+ T cells were purified from the buffy coat layer of blood isolated from healthy donors, and were stimulated using ImmunoCult™ CD3/CD28/CD2 human T-Cell Activator and again restimulated at day 10 for 3 days. (A) Human CTLs were restimulated on day 15-20 for 24 h with plate-bound anti-CD3 in the presence of 10 μM of FPL64176 or carrier control before RNA was extracted for qRT-PCR analysis. n=1 healthy donor. TBP is used as a reference gene. (B) Updated graph of (A) showing n=3 independent experiments/healthy donors. Gli1 expression is normalised to carrier. […] Error bars indicate SD. p values were calculated using an unpaired two-tailed Student's t test (B) or a two-way ANOVA (C/D). * indicates p<0.05, ** indicates p<0.01, **** indicates p<0.0001.
In order to assess the role of L-type Cav channel agonists in controlling the activation and effector function of human CD8+ T cells, naive primary human CD8+ T cells were purified from the buffy coat layer of blood isolated from healthy donors. Cells were stimulated using ImmunoCult™ Human CD3/CD28/CD2 T Cell Activator beads for 24 hours in the presence of 5 or 10 μM FPL 64176 or carrier control, and GLI1 mRNA expression was assessed by qRT-PCR. […]

GLI1 [2] = assay: GLI1 expression by qRT-PCR in NK-92 cells; format: cell-based, human; settings: 10 μM
Protocol: FIG. 5. L-type Cav channel agonists increase GLI1 expression in the human NK cell line NK-92 and promote specific tumour cell killing. (A) NK-92 cells were stimulated using an anti-NKp46 mAb for 4 hours in the presence of 10 μM FPL 64176, and GLI1 expression was assessed using qRT-PCR. Data is n=4 independent experiments. (B) NK-92 cells were stimulated using an anti-NKp46 mAb for 4 hours in the presence of 100 μM Bay K8644, and GLI1 expression was assessed using qRT-PCR. Data is n=3 independent experiments. (C) An LDH assay was performed to assess specific cell killing of K562 target cells at indicated effector to target ratios in the presence of 10 μM FPL 64176 (right-hand columns) or carrier control (left-hand columns). Error bars indicate SD. Data is from n=3 independent experiments.
To investigate whether L-type Cav channel agonists are also capable of enhancing GLI1 mRNA levels in the human NK cell line NK-92 (a non-Hodgkin's lymphoma cell line, expressing only Cav1.3), NK-92 cells were stimulated using an anti-NKp46 mAb (5 μg/mL) for 4 hours in the presence of either 10 μM FPL 64176 or 100 μM Bay K8644. For reference, Bay K8644 is a structural analogue of nifedipine, and acts as an L-type Cav channel agonist. GLI1 expression was assessed using qRT-PCR. […] These observations confirm that the GLI1-inducing effect of Cav agonists is not merely restricted to the compound FPL 64176. In particular, in NK cells.

Q: How did the “memory phenotypes (CD44/CD62L subsets)” value (CD8+ T cells; naïve CD8+ T cells stimulated with anti-CD3/CD28) turn out when `COC(=O)c1c(C)[nH]c(C)c1C(=O)c1ccccc1Cc1ccccc1` [FPL 64176] was run?
A: Its value is “does not affect”.

Q: What about the “viability or proliferation of naïve and cytotoxic CD8+ T cells” value (CD8+ T cells; live cell numbers, Apotracker Green, DAPI) of the same molecule?
A: The value was “does not impair”.

Q: What about the GLI1 expression (GLI1 [1]; human CD8+ CTLs restimulated day 15-20 with plate-bound anti-CD3, 10 μM, 24 hours (FIG. 3B)) of the same molecule?
A: Its GLI1 expression is “increase”.

Q: And the GLI1 expression (GLI1 [1]; naive human CD8+ T cells, CD3/CD28/CD2 activator 24 hours, 5 or 10 μM (FIG. 3A))?
A: The GLI1 expression was “dose-dependent increase”.

Q: What about the GLI1 expression (GLI1 [2]; stimulated with anti-NKp46 mAb 4 hours, vs carrier control) of the same molecule?
A: Its GLI1 expression is “increased”.

Q: What about the GLI1 expression (GLI1 [2]; unstimulated cells) of the same molecule?
A: The GLI1 expression was “No significant increase”.
